The values below are quoted from earlier work in US20170119783A1, “Method for Treating Cognitive Impairment Associated With Neurodegenerative Disorders” (priority 2014, published 2017).

Series [1] has as its system Ehrlich ascots tumor cells.
For series [2] the following is noted: within the group of artemisinin analogs.
A further series concerns cancer cells. The note with it: more effective for hepatoma and embryonic lung cells than human gastric cancer cells.
A further series has as its system nucleic acid synthesis. Conditions: relative to artemisinin.

Like-named read-outs stand apart in the source and are kept apart here.

For the molecule `C[C@@H]1[C@H](OCc2ccc(C(=O)O)cc2)O[C@@H]2O[C@@]3(C)CC[C@@H]4[C@@H](C)CC[C@@H]1[C@]24OO3` [Artelinic acid], the “water solubility (in words)” value was “most water-soluble”. Besides, the “water solubility (in words)” value (listed as artelinic acid) is given as “higher solubility in water”. Moreover, the “efficacy against Ehrlich ascots tumor cells (in words)” value (“efficacy” for short) in series [1] is recorded as “efficacy against Ehrlich ascots tumor cells”. The “stability (in words)” value in series [2] is given as “most stable”. Turning to `CO[C@H]1O[C@@H]2O[C@@]3(C)CC[C@H]4[C@H](C)CC[C@@H]([C@H]1C)[C@@]24OO3` [Artemether], the “water solubility (in words)” value is listed as “higher solubility in water”.

In the case of `C[C@@H]1CC[C@H]2[C@@H](C)C(=O)O[C@@H]3O[C@@]4(C)CC[C@@H]1[C@]32OO4` [Artemisinin, (3R,5aS,6R,8aS,9R,12S,12aR)-octahydro-3,6,9-trimethyl-3,12-epoxy-12H-pyr-ano[4,3-j]-1,2-benzodioxepin-10(3H)-one], the “water solubility (in words)” value is on record as “poor water solubility”. In addition, the “toxicity to cancer cells in vitro (in words)” value in the series with cancer cells was “toxic to cancer cells in vitro”. For the same molecule, in series [1], the “efficacy” value is recorded as “efficacy against Ehrlich ascots tumor cells”. For the molecule `C[C@H]1[C@H](N2CCS(=O)(=O)CC2)O[C@@H]2O[C@@]3(C)CC[C@H]4[C@H](C)CC[C@@H]1[C@@]24OO3` [Artemisone], in the series with Plasmodium falciparum (Haynes et al. 2006), the “antimalarial activity (in words)” value was “high antimalarial activity”.

With `C[C@H]1[C@@H](O)O[C@@H]2O[C@@]3(C)CC[C@H]4[C@H](C)CC[C@@H]1[C@@]24OO3` [Dihydroartemisinin], the “water solubility (in words)” value is on record as “higher solubility in water”. Take `CCO[C@H]1O[C@@H]2O[C@@]3(C)CC[C@H]4[C@H](C)CC[C@@H]([C@H]1C)[C@@]24OO3` [arteether]: the “water solubility (in words)” value is listed as “higher solubility in water”. Besides, in series [1], the “efficacy” value was “efficacy against Ehrlich ascots tumor cells”. Further, in the series on nucleic acid synthesis, the “ability to inhibit nucleic acid synthesis, times the activity of artemisinin” value is 100 times.

Take `C[C@H]1[C@H](OC(=O)CCC(=O)O)O[C@@H]2O[C@@]3(C)CC[C@H]4[C@H](C)CC[C@@H]1[C@@]24OO3` [artesunate]: the “antimalarial potency, times that of artemisinin” value in the series on Plasmodium falciparum (relative to artemisinin) is 5.2 times. Further, in the series with nucleic acid synthesis, the “ability to inhibit nucleic acid synthesis, times the activity of artemisinin” value is recorded as 100 times. As to `CCCOC(=O)OC1O[C@@H]2O[C@@]3(C)CC[C@H]4[C@H](C)CC[C@@H]([C@H]1C)[C@@]24OO3` (stereo partly shown) [propylcarbonate dihydroartemisinin], the “water solubility (in words)” value is “higher solubility in water”. For the same molecule, in the series on nucleic acid synthesis, the “ability to inhibit nucleic acid synthesis, times the activity of artemisinin” value was 100 times. As to `C[C@H]1[C@@H](OCc2ccc(C(=O)O)cc2)O[C@@H]2O[C@]3(C)CC[C@H]4[C@H](C)CC[C@@H]1[C@@]24OO3` [sodium artelinate], the “efficacy” value in series [1] is “efficacy against Ehrlich ascots tumor cells”. As for `C[C@H]1[C@H](OC(=O)CCC(=O)[O-])O[C@@H]2O[C@@]3(C)CC[C@H]4[C@H](C)CC[C@@H]1[C@@]24OO3.[Na+]` [sodium artesunate], the “efficacy” value in series [1] is “efficacy against Ehrlich ascots tumor cells”.
